# Measured values published in patent publication US9920049B2 (priority 2014, dated 2018).
# System: HBsAg
# Experiment: HBsAg assay (CLIA of secreted HBsAg in HepG2.2.15 culture supernatant)
# Type: cell-based, HBV
# Conditions: Hepatitis B virus
# Procedure: HepG2.2.15 cells (Acs et al. Proc Natl Acad Sci USA, 84, (1987), 4641-4), a constitutively HBV-expressing cell line were cultured in DMEM+Glutamax-I medium (Invitrogen, Carlsbad, Calif., USA), supplemented with 10% fetal bovine serum (Invitrogen) and G418 (Invitrogen) at a final concentration of 200 mg/L and maintained in 5% CO2 at 37° C.
# HepG2.2.15 cells were seeded in duplicate into white, 96-well plates at 1.5×10^4 cells/well. The cells were treated with a three-fold serial dilution series of the compounds in DMSO. The final DMSO concentration in all wells was 1% and DMSO was used as no drug control.
# The HBsAg chemiluminescence immunoassay (CLIA) kit (Autobio Diagnostics Co., Zhengzhou, China, Catalog number: CL0310-2) was used to measure the levels of secreted HBV antigens semi-quantitatively. For the detection 50 μL/well culture supernatant was used and HBsAg was quantified using HBsAg chemiluminescence immunoassay (CLIA) kit (Autobio Diagnostics Co., Zhengzhou, China, Catalog number: CL0310-2), 50 μl of the supernatant was transferred to the CLIA assay plate and 50 μL of enzyme conjugate reagent was added into each well. The plates were sealed and gently agitated for 1 hour at room temperature. The supernatant-enzyme-mixture was discarded and wells were washed 6 times with 300 μL of PBS. The residual liquid was removed by plating the CLIA plate right side down on absorbent tissue paper. 25 μL of substrates A and B were added to each well. Luminance was measured using a luminometer (Mithras LB 940 Multimode Microplate Reader) after 10 minutes incubation. Dose-response curves were generated and the IC50 value was extrapolated by using the E-WorkBook Suite (ID Business Solutions Ltd., Guildford, UK).
# The compounds of the present invention were tested for their capacity to inhibit HBsAg as described herein.
row,SMILES,IC50 [µM]
1,"CCC1Cc2cc(OCc3ccccc3)c(OC)cc2-c2cc(=O)c(C(=O)NCc3ccccc3)cn21 (centres unmarked) [Example 1, N-benzyl-9-benzyloxy-6-ethyl-10-methoxy-2-oxo-6,7-dihydrobenzo[a]quinolizine-3-carboxamide]",26.2
2,"CCC1Cc2cc(OCc3ccccc3)c(OC)cc2-c2cc(=O)c(C(=O)NC(C)COC)cn21 (centres unmarked) [Example 3, 9-benzyloxy-6-ethyl-10-methoxy-N-(2-methoxy-1-methyl-ethyl)-2-oxo-6,7-dihydrobenzo[a]quinolizine-3-carboxamide]",31
3,"CCC1Cc2cc(OCc3ccccc3)c(OC)cc2-c2cc(=O)c(C(=O)NS(C)(=O)=O)cn21 (centres unmarked) [Example 4, 9-benzyloxy-6-ethyl-10-methoxy-N-methylsulfonyl-2-oxo-6,7-dihydrobenzo[a]quinolizine-3-carboxamide]",0.92
4,"CCCNC(=O)c1cn2c(cc1=O)-c1cc(OC)c(OCc3ccccc3)cc1CC2CC (centres unmarked) [Example 5, 9-benzyloxy-6-ethyl-10-methoxy-2-oxo-N-propyl-6,7-dihydrobenzo[a]quinolizine-3-carboxamide]",5.6
5,"CCC1Cc2cc(OCc3ccccc3)c(OC)cc2-c2cc(=O)c(C(=O)NC(C)CO)cn21 (centres unmarked) [Example 7, 9-benzyloxy-6-ethyl-N-(2-hydroxy-1-methyl-ethyl)-10-methoxy-2-oxo-6,7-dihydrobenzo[a]quinolizine-3-carboxamide]",7.8
6,CCC1Cc2cc(OCc3ccccc3)c(OC)cc2-c2cc(=O)c(C(=O)NCCN(C)C)cn21 (centres unmarked) [Example 8],33.7
7,"CCC(C)NC(=O)c1cn2c(cc1=O)-c1cc(OC)c(OCc3ccccc3)cc1CC2CC (centres unmarked) [Example 9, 9-benzyloxy-6-ethyl-10-methoxy-2-oxo-N-sec-butyl-6,7-dihydrobenzo[a]quinolizine-3-carboxamide]",5.4
8,"CCC1Cc2cc(OCc3ccccc3)c(OC)cc2-c2cc(=O)c(C(=O)NO)cn21 (centres unmarked) [Example 10, 9-benzyloxy-6-ethyl-10-methoxy-2-oxo-6,7-dihydrobenzo[a]quinolizine-3-carbohydroxamic Acid]",20.3
9,"CCC1Cc2cc(OCc3ccccc3)c(OC)cc2-c2cc(=O)c(C(=O)NC(C)CN(C)C)cn21 (centres unmarked) [Example 11, 9-benzyloxy-N-[2-(dimethylamino)-1-methyl-ethyl]-6-ethyl-10-methoxy-2-oxo-6,7-dihydrobenzo[a]quinolizine-3-carboxamide]",23.9
10,"CCC1Cc2cc(OCCCOC)c(OC)cc2-c2cc(=O)c(C(=O)N3CCOC(C(=O)O)C3)cn21 (centres unmarked) [Example 13, 4-[6-ethyl-10-methoxy-9-(3-methoxypropoxy)-2-oxo-6,7-dihydrobenzo[a]quinolizine-3-carbonyl]morpholine-2-carboxylic Acid]",36.6
11,"CCC1Cc2cc(OCCCOC)c(OC)cc2-c2cc(=O)c(C(=O)Nc3nnn[nH]3)cn21 (centres unmarked) [Example 14, 6-ethyl-10-methoxy-9-(3-methoxypropoxy)-2-oxo-N-(1H-tetrazol-5-yl)-6,7-dihydrobenzo[a]quinolizine-3-carboxamide]",1.1
12,"CCC1Cc2cc(OCCCOC)c(OC)cc2-c2cc(=O)c(C(=O)NCc3ccccc3)cn21 (centres unmarked) [Example 15, N-benzyl-6-ethyl-10-methoxy-9-(3-methoxypropoxy)-2-oxo-6,7-dihydrobenzo[a]quinolizine-3-carboxamide]",26.7
13,"CCC1Cc2cc(OCCCOC)c(OC)cc2-c2cc(=O)c(C(=O)NC(C)COC)cn21 (centres unmarked) [Example 16, 6-ethyl-10-methoxy-N-(2-methoxy-1-methyl-ethyl)-9-(3-methoxypropoxy)-2-oxo-6,7-dihydrobenzo[a]quinolizine-3-carboxamide]",18.4
14,"CCOc1cc2c(cc1OC)-c1cc(=O)c(C(=O)NC(C)COC)cn1C(CC)C2 (centres unmarked) [Example 17, 9-ethoxy-6-ethyl-10-methoxy-N-(2-methoxy-1-methyl-ethyl)-2-oxo-6,7-dihydrobenzo[a]quinolizine-3-carboxamide]",2.2
15,"CCC1Cc2cc(OCC(C)C)c(OC)cc2-c2cc(=O)c(C(=O)NC(C)COC)cn21 (centres unmarked) [Example 18, 6-ethyl-9-isobutoxy-10-methoxy-N-(2-methoxy-1-methyl-ethyl)-2-oxo-6,7-dihydrobenzo[a]quinolizine-3-carboxamide]",4.9
16,"CCC1Cc2cc(OCC3CC3)c(OC)cc2-c2cc(=O)c(C(=O)NC(C)COC)cn21 (centres unmarked) [Example 19, 9-(cyclopropylmethoxy)-6-ethyl-10-methoxy-N-(2-methoxy-1-methyl-ethyl)-2-oxo-6,7-dihydrobenzo[a]quinolizine-3-carboxamide]",8

row,SMILES,IC50 [µM]
1,"CCC1Cc2cc(OCCCOC)c(OC)cc2-c2cc(=O)c(CO)cn21 (centres unmarked) [Example 20, 6-ethyl-3-(hydroxymethyl)-10-methoxy-9-(3-methoxy-propoxy)-6,7-dihydrobenzo[a]quinolizin-2-one]",22.3
2,"CCC1Cc2cc(OCCCOC)c(OC)cc2-c2cc(=O)c(CN3CCOCC3C(=O)O)cn21 (centres unmarked) [Example 21, 4-[[6-ethyl-10-methoxy-9-(3-methoxypropoxy)-2-oxo-6,7-dihydrobenzo[a]quinolizin-3-yl]methyl]morpholine-3-carboxylic Acid]",19.4
3,"CCC1Cc2cc(OCCCOC)c(OC)cc2-c2cc(=O)c(CN3CCCCC3C(=O)O)cn21 (centres unmarked) [Example 22, 1-[[6-ethyl-10-methoxy-9-(3-methoxypropoxy)-2-oxo-6,7-dihydrobenzo[a]quinolizin-3-yl]methyl]piperidine-2-carboxylic Acid]",43.2
4,"CCC1Cc2cc(OCCCOC)c(OC)cc2-c2cc(=O)c(CN3CCCC3C(=O)O)cn21 (centres unmarked) [Example 23, 1-[[6-ethyl-10-methoxy-9-(3-methoxypropoxy)-2-oxo-6,7-dihydrobenzo[a]quinolizin-3-yl]methyl]pyrrolidine-2-carboxylic Acid]",17.3
5,"CCC1Cc2cc(OCCCOC)c(OC)cc2-c2cc(=O)c(CN3CCCCC3)cn21 (centres unmarked) [Example 24, 6-ethyl-10-methoxy-9-(3-methoxypropoxy)-3-(1-piperidylmethyl)-6,7-dihydrobenzo[a]quinolizin-2-one]",12.6
6,"CCC1Cc2cc(OCCCOC)c(OC)cc2-c2cc(=O)c(CN3CCCC3)cn21 (centres unmarked) [Example 25, 6-ethyl-10-methoxy-9-(3-methoxypropoxy)-3-(pyrrolidin-1-ylmethyl)-6,7-dihydrobenzo[a]quinolizin-2-one]",16.4
7,"CCC1Cc2cc(OCCCOC)c(OC)cc2-c2cc(=O)c(CN3CCOCC3)cn21 (centres unmarked) [Example 26, 6-ethyl-10-methoxy-9-(3-methoxypropoxy)-3-(morpholinomethyl)-6,7-dihydrobenzo[a]quinolizin-2-one]",16.2
8,"CCC1Cc2cc(OCCCOC)c(OC)cc2-c2cc(=O)c(CNC)cn21 (centres unmarked) [Example 27, 6-ethyl-10-methoxy-9-(3-methoxypropoxy)-3-(methylaminomethyl)-6,7-dihydrobenzo[a]quinolizin-2-one]",15.8
9,"CCC1Cc2cc(OCCCOC)c(OC)cc2-c2cc(=O)c(CN(C)C)cn21 (centres unmarked) [Example 28, 3-[(dimethylamino)methyl]-6-ethyl-10-methoxy-9-(3-methoxypropoxy)-6,7-dihydrobenzo[a]quinolizin-2-one]",3.7
10,"CCC1Cc2cc(OCCCOC)c(OC)cc2-c2cc(=O)c(COC)cn21 (centres unmarked) [Example 29, 6-ethyl-10-methoxy-3-(methoxymethyl)-9-(3-methoxypropoxy)-6,7-dihydrobenzo[a]quinolizin-2-one]",1.5
11,"CCC1Cc2cc(OCCCOC)c(OC)cc2-c2cc(=O)c(CN(C)CC(=O)O)cn21 (centres unmarked) [Example 30, 2-[[6-ethyl-10-methoxy-9-(3-methoxypropoxy)-2-oxo-6,7-dihydrobenzo[a]quinolizin-3-yl]methyl-methyl-amino]acetic Acid]",16.9
12,"CC[C@@H]1Cc2cc(OC)c(OC)cc2-c2cc(=O)c(C(=O)Nc3nnn[nH]3)cn21 [Example 31, (6R)-6-ethyl-9,10-dimethoxy-2-oxo-N-(1H-tetrazol-5-yl)-6,7-dihydrobenzo[a]quinolizine-3-carboxamide]",44.1
13,"COCCCOc1cc2c(cc1OC)-c1cc(=O)c(C(=O)Nc3nnn[nH]3)cn1C(C(C)(C)C)C2 (centres unmarked) [Example 32, 6-tert-butyl-10-methoxy-9-(3-methoxypropoxy)-2-oxo-N-(1H-tetrazol-5-yl)-6,7-dihydrobenzo[a]quinolizine-3-carboxamide]",0.38
14,"COCCCOc1cc2c(cc1OC)-c1cc(=O)c(C(=O)Nc3nnn[nH]3)cn1C(C1CCC1)C2 (centres unmarked) [Example 33, 6-cyclobutyl-10-methoxy-9-(3-methoxypropoxy)-2-oxo-N-(1H-tetrazol-5-yl)-6,7-dihydrobenzo[a]quinolizine-3-carboxamide]",1
15,"COCCOc1cc(Cl)c2c(c1)CC(C(C)C)n1cc(C(=O)Nc3nnn[nH]3)c(=O)cc1-2 (centres unmarked) [Example 34, 11-chloro-6-isopropyl-9-(2-methoxyethoxy)-2-oxo-N-(1H-tetrazol-5-yl)-6,7-dihydrobenzo[a]quinolizine-3-carboxamide]",18.3
16,"COc1cc2c(cc1OC)-c1cc(=O)c(C(=O)Nc3nnn[nH]3)cn1C(CC(F)(F)F)C2 (centres unmarked) [Example 35, 9,10-dimethoxy-2-oxo-N-(1H-tetrazol-5-yl)-6-(2,2,2-trifluoroethyl)-6,7-dihydrobenzo[a]quinolizine-3-carboxamide]",12.9
